Test results published in patent publication US7479506B2, “Agent or method for treating severe aphasia in cerebrovascular accident chronic stage” (priority 2003, dated 2009).

How the values were obtained:
Acute toxicity = conditions: in vivo
Text: Acute toxicity of the compound represented by formula (I) was examined and it has been confirmed that this is a compound having high safety.

[1] = 60 g/day for gait disturbance of cerebellar degeneration; Movement Disorder, 2003, 18, pp. 457-459; cited from earlier work
[2] = test system: aphasia after cerebrovascular accidents; conditions: acute phase after cerebrovascular accidents, combination use of speech therapy; cited from earlier work

Q: With `NC(=O)CN1CCCC1=O` [piracetam, 2-oxo-1-pyrrolidineacetamide] as the molecule, how does the acute toxicity (Acute toxicity) read?
A: Its acute toxicity is “high safety”.

Q: And the safety [1]?
A: The safety was “no problem on its safety”.

Q: And the “therapeutic effect on aphasia” value [2]?
A: Its value is “therapeutic effect of piracetam is found”.
